According to US11873298B2, “Compounds and uses thereof” (JANSSEN PHARMACEUTICA NV, priority 2017, dated 2024):

Legend:
[1] = biological target: T1, SCD1 (Homo sapiens, UniProt O00767); assay: Growth inhibition of humanized yeast strain expressing SCD1 as sole desaturase; assay type: cell-based
T1 construct: host or cells: S. cerevisiae ole1Δ strain (W303 pdr1Δ pdr3Δ background), plasmid pRS316 with TDH3 promoter and CYC1 terminator
T1 sequence (O00767 1-359): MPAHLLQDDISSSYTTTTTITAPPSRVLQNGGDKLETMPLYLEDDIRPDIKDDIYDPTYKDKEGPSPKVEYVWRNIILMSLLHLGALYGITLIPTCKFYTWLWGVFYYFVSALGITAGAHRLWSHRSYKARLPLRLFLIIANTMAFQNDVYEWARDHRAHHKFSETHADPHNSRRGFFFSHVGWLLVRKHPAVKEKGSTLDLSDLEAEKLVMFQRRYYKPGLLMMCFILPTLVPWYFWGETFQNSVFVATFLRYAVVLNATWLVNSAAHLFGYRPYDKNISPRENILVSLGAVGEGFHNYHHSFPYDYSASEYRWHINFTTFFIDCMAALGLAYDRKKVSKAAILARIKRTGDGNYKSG
Method in brief: (§1)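 Plasmid-complemented ole1Δ yeast, drug-pump deleted (pdr1Δ pdr3Δ), depend solely on the introduced Ole1, SCD1 or SCD5 desaturase. Compounds are added from DMSO to cells in uracil-free galactose medium, 2× density 0.02, and OD600 is read after 24 h or 40 h respectively.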

[2] = biological target: T2, SCD5 (Homo sapiens, UniProt Q86SK9); assay: Growth inhibition of humanized yeast strain expressing SCD5 as sole desaturase; assay type: cell-based
T2 construct: host or cells: S. cerevisiae ole1Δ strain (W303 pdr1Δ pdr3Δ background), plasmid pRS316 with TDH3 promoter and CYC1 terminator
T2 sequence (Q86SK9 1-330): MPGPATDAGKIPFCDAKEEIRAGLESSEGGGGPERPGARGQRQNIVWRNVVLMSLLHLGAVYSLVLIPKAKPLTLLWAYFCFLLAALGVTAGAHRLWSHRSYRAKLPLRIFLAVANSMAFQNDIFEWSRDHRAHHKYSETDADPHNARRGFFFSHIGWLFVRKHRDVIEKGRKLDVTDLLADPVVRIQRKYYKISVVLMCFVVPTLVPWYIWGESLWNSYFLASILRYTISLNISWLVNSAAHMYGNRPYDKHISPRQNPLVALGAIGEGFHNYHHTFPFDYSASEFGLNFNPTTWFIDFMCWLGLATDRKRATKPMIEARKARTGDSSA
Method in brief: as §1

[3] = growth inhibition of humanized yeast strain expressing human SCD1
[4] = growth inhibition of humanized yeast strain expressing human SCD5
[5] = humanized yeast strain expressing SCD1
[6] = humanized yeast strain expressing SCD5

CC(C)(C)OC(=O)N1CCC(c2nc(-c3ccc4cn(C5CN(C(=O)OC(C)(C)C)C5)nc4c3)no2)CC1 [Compound 656]
IC50 [1, 3]: > 45 µM
IC50 [2, 4]: > 45 µM

O=C(C1CC2(CC2)C1)N1CCN(c2nnc(-c3ccc4cnn(C5COC5)c4c3)o2)CC1 [Compound 993]
IC50 ([1]; humanized yeast strain, 40 h): > 45 µM
IC50 ([2]; humanized yeast strain, 40 h): 3.81 µM

Cc1nn(C)c2cc(-c3noc(C4CCN(C(=O)CNC(=O)c5cccc(Cl)c5)CC4(F)F)n3)ccc12 (stereo not drawn) [Compound 603]
IC50 [1, 5]: 7.26 µM
IC50 [2, 6]: 2.41 µM

CC(C)n1ncc2ccc(-c3noc(C4CCN(C(=O)C56CC(F)(C5)C6)CC4)n3)cc21 [Compound 756]
IC50 ([1]; humanized yeast strain, 40 h): > 45 µM
IC50 ([2]; humanized yeast strain, 40 h): 4.36 µM

Cc1nn(C)c2cc(-c3noc([C@H]4CCN(C(=O)CNC(=O)c5ccccc5)CC4(F)F)n3)ccc12 [Compound 578]
IC50 [1, 5]: 8.46 µM
IC50 [2, 6]: 1.49 µM

CC(C)(C)OC(=O)N1CCC(c2noc(-c3cncc(C4CCOC4)c3)n2)CC1 (stereo not drawn) [Compound 1190]
IC50 ([1]; humanized yeast strain, 40 h): > 45 µM
IC50 ([2]; humanized yeast strain, 40 h): 0.06 µM

O=C(N1CCC(c2noc(-c3cccc(N4CCOCC4)c3)n2)CC1)C1(F)CC1 [Compound 1080]
IC50 ([1]; humanized yeast strain, 40 h): > 45 µM
IC50 ([2]; humanized yeast strain, 40 h): 0.501 µM

CC(C)(C)OC(=O)N1CCC(c2noc(N3CCc4nn(C5COC5)cc4C3)n2)CC1 [Compound 1172]
IC50 ([1]; humanized yeast strain, 40 h): ≥ 45 µM
IC50 ([2]; humanized yeast strain, 40 h): 9.89 µM

CC(C)(C)OC(=O)N1CCC(c2noc(-c3cccc([C@@H]4CCOC4)c3)n2)CC1 [Compound 795]
IC50 ([1]; humanized yeast strain, 40 h): > 45 µM
IC50 ([2]; humanized yeast strain, 40 h): 0.01 µM

CC(C)(C)OC(=O)N1CCN(c2noc(-c3ccnc(Cl)c3)n2)CC1 [Compound 754]
IC50 ([1]; humanized yeast strain, 40 h): > 45 µM
IC50 ([2]; humanized yeast strain, 40 h): 16.5 µM

CC(C)(C)OC(=O)N1CCC(c2nc(-c3ccc4cnn(C5CNC5)c4c3)no2)CC1 [Compound 728]
IC50 [1, 3]: > 45 µM
IC50 [2, 4]: 0.126 µM

CC1(OC(=O)N2CCC(c3nnc(-c4ccc5cnn(C6CCOC6)c5c4)o3)CC2)CC1 (stereo not drawn) [Compound 986]
IC50 ([1]; humanized yeast strain, 40 h): > 45 µM
IC50 ([2]; humanized yeast strain, 40 h): 0.048 µM

CC(C)N1C(=O)Cc2ccc(-c3noc(C4CCN(C(=O)OC5(C)CC5)CC4)n3)cc21 [Compound 610]
IC50 [1, 3]: > 45 µM
IC50 [2, 4]: 2.16 µM

CC(C)n1ncc2ccc(-c3noc(N4CCN(C(=O)c5ccccc5Cl)CC4)n3)cc21 [Compound 364]
SCD1 % Max Inhibition [1, 5]: 70.82%
IC50 [2, 6]: > 45 µM
SCD5 % Max Inhibition [2, 6]: 2.22%

CC(C)n1ncc2ccc(-c3noc(C4(F)CCN(C(=O)OC5CC5)CC4)n3)cc21 [Compound 624]
IC50 [1, 3]: > 45 µM
IC50 [2, 4]: 0.222 µM

O=C(C1CC1)N1CCC(c2noc(-c3cc(F)c4cnn(C5COC5)c4c3)n2)CC1 [Compound 1067]
IC50 ([1]; humanized yeast strain, 40 h): > 45 µM
IC50 ([2]; humanized yeast strain, 40 h): 0.00498 µM

O=C(c1ccccc1)N1CCN(c2noc(-c3ccc4cnn(C5COC5)c4c3)n2)CC1 [Compound 712]
IC50 [1, 3]: > 45 µM
IC50 [2, 4]: 0.016 µM

CC(C)(C)OC(=O)N1CCC(c2noc(-c3ccnc(CC4CC4)c3)n2)CC1 [Compound 1082]
IC50 ([1]; humanized yeast strain, 40 h): > 45 µM
IC50 ([2]; humanized yeast strain, 40 h): 0.359 µM

CC(C)n1ncc2ccc(-c3nnc(C4CCN(C(=O)CC5(C)CC5)CC4)[nH]3)cc21 [Compound 691]
IC50 [1, 3]: > 45 µM
IC50 [2, 4]: > 45 µM

CC(C)C(=O)N1CCC(c2noc(-c3ccc4cnn(C5COC5)c4c3F)n2)CC1 [Compound 1112]
IC50 ([1]; humanized yeast strain, 40 h): > 45 µM
IC50 ([2]; humanized yeast strain, 40 h): 0.193 µM

CC(C)(C)C(=O)N1CC2(CC(c3noc(-c4ccc5cnn(C6COC6)c5c4)n3)C2)C1 [Compound 1033]
IC50 ([1]; humanized yeast strain, 40 h): > 45 µM
IC50 ([2]; humanized yeast strain, 40 h): 3.91 µM

CC(C)(C)OC(=O)N1CCC(c2nc(-c3ccc4c(Br)ncn4c3)no2)CC1 [Compound 872]
IC50 ([1]; humanized yeast strain, 40 h): > 45 µM
IC50 ([2]; humanized yeast strain, 40 h): 8.06 µM

CC(C)(C)OC(=O)N1CCN(c2noc(-c3cccc(C4CCOC4)c3)n2)CC1 (stereo not drawn) [Compound 778]
IC50 ([1]; humanized yeast strain, 40 h): > 45 µM
IC50 ([2]; humanized yeast strain, 40 h): 0.012 µM

O=C(CC1CC1)N1CCC(c2noc(-c3ccnc(C4CCOC4)c3)n2)CC1 (stereo not drawn) [Compound 1100]
IC50 ([1]; humanized yeast strain, 40 h): > 45 µM
IC50 ([2]; humanized yeast strain, 40 h): 0.738 µM

Clc1cnc2n1CCN(c1noc(-c3ccc4cnn(C5CCC5)c4c3)n1)C2 [Compound 905]
IC50 ([1]; humanized yeast strain, 40 h): > 45 µM
IC50 ([2]; humanized yeast strain, 40 h): > 45 µM

Cc1noc(N2CCN(c3nc(-c4ccc5cnn(C(C)C)c5c4)no3)CC2)n1 [Compound 657]
IC50 [1, 3]: > 45 µM
IC50 [2, 4]: 9.11 µM

CC(C)c1noc2ccc(-c3noc(C4CCN(C(=O)CC5(C)CC5)CC4)n3)cc12 [Compound 670]
IC50 [1, 3]: > 45 µM
IC50 [2, 4]: 3.79 µM

CC(C)n1ncc2ccc(-c3noc(C4CCN(C(=O)C5CCCN5C)CC4)n3)cc21 (stereo not drawn) [Compound 706]
IC50 [1, 3]: > 45 µM
IC50 [2, 4]: > 45 µM
